This note sets out measurements from US20130190251A1, “METHOD FOR PREDICTING THE RESPONSIVENESS TO CHEMOTHERAPY” (priority 2010, published 2013).

Entries after “also recorded” stand apart in the source; their conditions may differ.

What all share (format): cell-based
The subject of assay [1] is HL-60 cells resistant to daunorubicin (HL60R). The experiment in a line: Apoptosis by mitochondrial depolarization after DiOC6 labeling, HL60R. To be noted: 15-hour incubation, gliotoxin 1 mg/ml or p21 peptide 50 mM. Here is the method:
(§1) FIG. 7. The p21 peptide restores apoptosis in daunorubicin-resistant HL60 cells. HL60S and HL60R were incubated overnight with the p21 peptide (50 mM) or with gliotoxin (1 mg/ml). After a 15-hour incubation, the effect of the p21 peptide on the percentage of apoptotic HL60 cells was measured by mitochondrial depolarization after DiOC6 labeling and by DNA fragmentation after propidium iodide labeling. Data are means±SEM of 5 independent experiments.
(§2) Apoptosis in HL-60 cells sensitive to daunorubicin (HL60S) was compared to apoptosis in HL-60 cells resistant to daunorubicin (HL60R). Apoptosis was induced either by gliotoxin that triggers apoptosis by targeting the mitochondria or the p21 peptide. The p21 peptide corresponds to residues 141 to 160 of p21 fused to the cell penetrating peptide RYIRS. HL60S and HL60R were incubated overnight with the p21 peptide (50 mM) or with gliotoxin (1 mg/ml). After a 15-hour incubation, the effect of the p21 peptide on the percentage of apoptotic HL60 cells was measured by mitochondrial depolarization after DiOC6 labeling and by DNA fragmentation after propidium iodide labeling (FIG. 7).

Assay [2] has the same test system. The experiment in a line: Apoptosis by DNA fragmentation after propidium iodide labeling, HL60R. To be noted: 15-hour incubation, gliotoxin 1 mg/ml or p21 peptide 50 mM. The procedure: as §1, §2
The subject of assay [3] is HL-60 cells sensitive to daunorubicin (HL60S). The experiment in a line: Apoptosis by mitochondrial depolarization after DiOC6 labeling, HL60S. To be noted: 15-hour incubation, gliotoxin 1 mg/ml or p21 peptide 50 mM. Here is the method:
as §1, §2

For assay [4] the test system is unchanged. The experiment in a line: Apoptosis by DNA fragmentation after propidium iodide labeling, HL60S. To be noted: 15-hour incubation, gliotoxin 1 mg/ml or p21 peptide 50 mM. The procedure: as §1, §2
In assay [5] the test system is K562-doxorubicin sensitive cells. The experiment in a line: Analysis of drug resistance by DIOC2 efflux, K562 sensitive. To be noted: cisplatin 2.5 μg/ml, DIOC2 50 ng/ml, 30 min at 37° C., FACS. Here is the method: (§3) FIG. 6. Acquisition of drug resistance of myelocytic leukemia cell line K562 by doxorubicin. Analysis of inhibition by cisplatin of DIOC2 incorporation in myelocytic leukemia K562 cell line. Drug resistance is mediated by ABC transporters such as P-glycoprotein (P-gp) K562 cells were incubated with DIOC2 with or without cisplatin, and the fluorescence of DIOC2 incorporated in cells was assessed by FACS. In K562-doxorubicin sensitive cells, high fluorescence of DIOC2 is observed because of the lack of efflux. No effect of cisplatin is observed consistent with an absence of ABC transporter-mediated drug resistance.
(§4) The assay is based on the efflux of fluorescent P-gp substrate DiOC2 (3-ethyl-2-[3-(3-ethyl-2(3H)-benzoxazolylidene)-1-propenyl]benzoxazolium iodide) in doxorubicin-resistant cells, which can be inhibited by cisplatin. This efflux is absent in doxorubicin-sensitive cells resulting in an accumulation of DIOC2. DIOC2 fluorescence is measured by flow cytometry. Briefly, K562 at 1×10^6 cellules/ml were treated by cisplatin (2.5 μg/ml) in the presence of DIOC2 (50 ng/ml) for 30 min at 37° C. The cells are analyzed by flow cytometry.

For assay [6], the system named is K562-doxorubicin resistant cells. The experiment in a line: Analysis of drug resistance by DIOC2 efflux, K562 resistant. As to conditions: cisplatin 2.5 μg/ml, DIOC2 50 ng/ml, 30 min at 37° C., FACS. The procedure: as §3, §4

Consider “p21 peptide: residues 141 to 160 of p21 fused to the cell penetrating peptide RYIRS (KRRQTSMTDFYHSKRRLIFSRYIRS; Synthetic peptide based on residues 141 to 160 of p21 fused to the RYIRS tag)”, for which the “mitochondria depolarization in HL60R (percentage of apoptotic HL60 cells)” value in assay [1] is reported as “low but significant mitochondria depolarization”. In addition, the “DNA fragmentation in HL60R (percentage of apoptotic HL60 cells)” value in assay [2] is given as “induces DNA fragmentation in HL60R more potently than in HL60S; also recorded: inducing DNA fragmentation in HL60R more potently than in HL60S”. The “mitochondria depolarization in HL60S (percentage of apoptotic HL60 cells)” value in assay [3] is listed as “more modest effect”.
As for `CN1C(=O)[C@]23CC4=CC=C[C@H](O)[C@H]4N2C(=O)[C@@]1(CO)SS3` [Gliotoxin, gliotoxin], in assay [1], the “mitochondria depolarization in HL60R (percentage of apoptotic HL60 cells)” value was “no effect on HL60R”. The “DNA fragmentation in HL60S (percentage of apoptotic HL60 cells)” value was “triggers mitochondria depolarization and DNA fragmentation in HL60S” in assay [4]; “induces apoptosis in HL60S” in assay [4] (listed as gliotoxin). For the same compound, in assay [2], the “DNA fragmentation in HL60R (percentage of apoptotic HL60 cells)” value is reported as “no effect on HL60R”.
For the compound `N.N.[Cl][Pt][Cl]` [cisplatin], the “effect on fluorescence of DIOC2 incorporated in cells” value in assay [5] is “No effect”. The “effect on DIOC2 efflux (fluorescence of DIOC2 incorporated in cells)” value in assay [6] is “efflux which was reversed”.
